# Measurements: patent US10959992B2, “Methods of treatment of asthma and COPD” (Bridge Pharma, Inc., priority 2019, dated 2021)
# Where two headings read alike, the source gives them in different places.
# Experiments:
# [1] = Plasma concentration after sc infusion (follow-up study); format: in vivo; conditions: Sprague-Dawley, rat, 1 mg/kg/day, after sc infusion of RS-norketotifen for 5 days, rats
# [2] = Lung/plasma distribution of norketotifen in dogs; format: in vivo, Beagle dogs; conditions: for Post-dose Lung Concentration / Post-dose Plasma Concentration / Kp: dog; for Post-dose Lung Concentration / Post-dose Plasma Concentration: oral 8.0 mg/kg/day NK-FB for four days; for Kp: female, Beagle, lung/plasma, 11.46 mg/kg/day
# Description: One group (N=3) of female Beagle dogs (8 to 10 kg/24 to 28 months) were administered racemic norketotifen hydrogen fumarate (RS-NK-HF) 11.46 mg/kg/day for 4 consecutive days. (11.46 mg of NK-HF is equal to 8.0 mg of the free base (RS-NK-FB).
# Plasma samples were collected daily on Days 2, 3 and 4. The last blood samples were taken four hours after dosing on Day 4. Lung and plasma concentrations of norketotifen were determined using a qualified LC-MS-MS analytical method. LLQ was <0.5 ng/ml. Immediately after blood collection on Day 4, all animals were euthanized with an overdose of pentobarbital, administered intravenously, followed by exsanguination. Lung tissue samples (approximately 1 g each) were collected from each animal from the left and right pulmonary lobes, samples were trimmed and dried of any access blood using absorbent paper, weighed and then kept in conical tubes frozen on dry ice and stored at −80° C. pending analysis. Six samples from each animal (3 samples per side) were analyzed.
# [3] = Lung/plasma distribution of norketotifen in rats; format: in vivo, SPD rats; conditions: for Kp: male, SPD, rat, lung/plasma, 20 mg/kg/day; for Lung Concentration / Plasma Concentration: rats
# Description: Groups of male SPD rats (200-230 g) were administered racemic norketotifen hydrogen Fumarate 20 mg/kg/day (=14.4 mg/kg/day of the free base) for 10 consecutive days. Lung and plasma samples were collected and prepared and the concentrations of RS-norketotifen were determined using a qualified LC-MS-MS analytical method. LLQ (Lowest Level of Quantification) was <0.5 ng/ml.
# Malassezia pachydermatis = test: Antimicrobial activity (MIC), Malassezia pachydermatis; format: cell-based; conditions: Fungi: Mp, MIC refers to lethal concentrations
# Candida albicans = test: Antimicrobial activity (MIC), Candida albicans; format: cell-based; conditions: Fungi: Ca, MIC refers to lethal concentrations
# Trichophyton rubrum = test: Antimicrobial activity (MIC), Trichophyton rubrum; format: cell-based; conditions: Mold: Tr, MIC refers to lethal concentrations
# [4] = test system: Trichophyton interdigitale; test: Antimicrobial activity (MIC), Trichophyton interdigitale; format: cell-based; conditions: Mold: Ti, MIC refers to lethal concentrations
# Staphylococcus aureus = test: Antimicrobial activity (MIC), Staphylococcus aureus; format: cell-based; conditions: Bacteria: Sa, MIC refers to lethal concentrations
# [5] = test system: Staphylococcus intermedius; test: Antimicrobial activity (MIC), Staphylococcus intermedius; format: cell-based; conditions: Bacteria: Si, MIC refers to lethal concentrations
# Haemophilus influenza = test: Antimicrobial activity (MIC), Haemophilus influenza; format: cell-based; conditions: Bacteria: Hi, MIC refers to lethal concentrations
# human M-3 (hM3) receptor = human M-3 (hM3) receptor (Homo sapiens, UniProt P20309); test: Muscarinic M-3 receptor binding assay; conditions: calculated from mean values, as norketotifen free base; NK hydrogen fumarate tested in duplicates, 1.0E-08M to 1.0E-04M
# Description: The current study used human M-3 (hM3) receptor and NK hydrogen fumarate was the antagonist in the current studies. The study used NK in duplicates at five dose-levels from 1.0E-08M to 1.0E-04M.
# IL-10 = test: PHA-induced release of IL-10 from human buffy coats; format: cell-based; conditions: PHA 5 μg/ml, 16 hours, inhibition
# Description: (§1) The study was conducted in two phases. The first phase included optimization of the test methodology and included also dose-range finding studies, using buffy coats from 3 human donors, stimulated with phytohemagglutinin (PHA). The concentrations of the test article and the duration of exposure were optimized to obtain acceptable dose-response ratios. Following optimization of the test conditions, a final protocol was issued. In the Main Study, buffy coats from 5 healthy human male donors were stimulated with PHA, 5 μg/ml.
# (§2) The inhibitory effects of three concentrations of NK and one concentration of ketotifen were evaluated in the Main Study. The buffy coats were resuspended in assay media and were pre-incubated for 30 min with either vehicle/saline, ketotifen (10 μM) or norketotifen (1.0; 10 or 100 μM). Following these preincubations, the white blood cell suspensions were stimulated for 16 hours with PHA, 5 μg/ml. The cell system supernatants were then harvested and stored frozen.
# IL-8 = test: PHA-induced release of IL-8 from human buffy coats; format: cell-based; conditions: PHA 5 μg/ml, 16 hours, inhibition
# Description: as §1, §2
# Water solubility = format: physicochemical
# immune system = test: Repeat-dose toxicology studies, signs of immune system suppression; format: in vivo; conditions: repeat-dose toxicology studies: hematology, clinical chemistry, histopathology, organ and body weight indicators
# [6] = Dose Day 4, once daily oral 14.4 mg/kg free base
# [7] = Dose Day 7, once daily oral 14.4 mg/kg free base
# [8] = Last dose + 24 hrs, once daily oral 14.4 mg/kg free base for 10 days
# [9] = Last dose, Day 10, once daily oral 14.4 mg/kg free base
# Sequence of human M-3 (hM3) receptor (P20309 whole entry): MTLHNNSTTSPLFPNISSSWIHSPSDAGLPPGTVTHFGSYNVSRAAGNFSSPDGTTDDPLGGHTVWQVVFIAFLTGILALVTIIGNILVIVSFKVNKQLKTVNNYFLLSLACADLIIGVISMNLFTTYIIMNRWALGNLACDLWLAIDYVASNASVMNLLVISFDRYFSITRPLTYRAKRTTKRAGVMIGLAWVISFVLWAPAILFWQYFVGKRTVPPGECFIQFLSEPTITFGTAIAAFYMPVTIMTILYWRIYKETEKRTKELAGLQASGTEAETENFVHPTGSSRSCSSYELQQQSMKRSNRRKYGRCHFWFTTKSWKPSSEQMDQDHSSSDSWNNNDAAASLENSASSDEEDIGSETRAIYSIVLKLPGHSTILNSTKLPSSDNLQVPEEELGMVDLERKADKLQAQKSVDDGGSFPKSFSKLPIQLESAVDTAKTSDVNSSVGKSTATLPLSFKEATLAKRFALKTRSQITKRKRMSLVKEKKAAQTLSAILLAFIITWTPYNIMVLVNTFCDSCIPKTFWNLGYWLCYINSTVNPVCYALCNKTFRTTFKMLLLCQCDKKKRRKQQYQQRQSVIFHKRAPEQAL
compound,measurement,setting,value
O=C1Cc2ccccc2C(=C2CCNCC2)c2ccsc21 (racemic) [norketotifen],concentration at 5 days,[1],4 ± 0.24 ng/mL
same,Post-dose Lung Concentration,"[2]; animal 001, Day 4",23590 ng/g
same,Post-dose Plasma Concentration,"[2]; animal 001, Day 4",301 ng/mL
same,Post-dose Lung Concentration,"[2]; animal 002, Day 4",79546 ng/g
same,Post-dose Plasma Concentration,"[2]; animal 002, Day 4",1651 ng/mL
same,Post-dose Lung Concentration,"[2]; animal 003, Day 4",61093 ng/g
same,Post-dose Plasma Concentration,"[2]; animal 003, Day 4",733 ng/mL
same,Kp,"[2]; oral, animal 001, Day 4, read-out: Lung / Plasma Ratio in Dogs",78.4
same,Kp,"[2]; oral, animal 002, Day 4, read-out: Lung / Plasma Ratio in Dogs",48.2
same,Kp,"[2]; oral, animal 003, Day 4, read-out: Lung / Plasma Ratio in Dogs",83.3
same,Kp,"[2]; po, mean of three dogs, Day 4, once daily oral dosing, read-out: Lung / Plasma Ratio in Dogs, Mean ± SEM",70
same,"Lung / Plasma Ratio in Dogs, Mean ± SEM","[2]; mean of three dogs, Day 4, once daily oral dosing, listed as NK",70.0 ± 11.0
same,Kp,"[3]; oral, Dose Day 4, read-out: Lung/Plasma Ratio in Rats",133
same,Kp,"[3]; oral, Dose Day 7, read-out: Lung/Plasma Ratio in Rats",92
same,Kp,"[3]; oral, Last dose + 24 hrs, read-out: Lung/Plasma Ratio in Rats",107
same,Kp,"[3]; oral, Last dose, Day 10, read-out: Lung/Plasma Ratio in Rats",79
same,Kp,"[3]; po, mean of the four study days, oral dosing, read-out: Lung/Plasma Ratio in Rats, Mean ± SEM",103
same,"Lung/Plasma Ratio in Rats, Mean ± SEM","[3]; mean of the four study days, oral dosing",100
same,"Lung/Plasma Ratio in Rats, Mean ± SEM","[3]; mean of the four study days, oral dosing, listed as NK",103 ± 11.6
same,"Lung/Plasma Ratio in Rats, Mean ± SEM","[3]; mean of the four study days, oral dosing, listed as RS-norketotifen",~100
same,Lung Concentration,[3]; [6],23612 ng/g
same,Plasma Concentration,[3]; [6],178 ng/mL
same,Lung Concentration,[3]; [7],25355 ng/g
same,Plasma Concentration,[3]; [7],276 ng/mL
same,Lung Concentration,[3]; [8],890 ng/g
same,Plasma Concentration,[3]; [8],8.3 ng/mL
same,Lung Concentration,[3]; [9],18171 ng/g
same,Plasma Concentration,[3]; [9],229 ng/mL
same,MIC,Malassezia pachydermatis,1000 µg/mL
same,MIC,Candida albicans,1000 µg/mL
same,MIC,Trichophyton rubrum,500 µg/mL
same,MIC,[4],500 µg/mL
same,MIC,Staphylococcus aureus,500 µg/mL
same,MIC,[5],250 µg/mL
same,MIC,Haemophilus influenza,about 0.25 mg/mL
same,MIC,"Haemophilus influenza; Haemophilus, read-out: MIC",250 µg/mL
same,Ki,human M-3 (hM3) receptor,2200 nM
same,Effect on PHA-induced release of IL-10 (%),IL-10; 1 uM,12.71^2%
same,Effect on PHA-induced release of IL-10 (%),IL-10; 10 uM,24.80^2%
same,Effect on PHA-induced release of IL-10 (%),IL-10; 100 uM,90.40^1%
same,Effect on PHA-induced release of IL-8 (%),IL-8; 1 uM,10.29^2%
same,Effect on PHA-induced release of IL-8 (%),IL-8; 10 uM,34.36^1%
same,Effect on PHA-induced release of IL-8 (%),IL-8; 100 uM,78.29^1%
same,Water solubility,Water solubility,about 2%
same,solubility,Water solubility; water,~20 mg/mL
same,Signs of immune system suppression,immune system,no signs of immune system suppression
